Measured values published in PubChem BioAssay (NCI).
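GI50 = concentration required for 50% inhibition of growth. TGI: concentration producing complete growth inhibition.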

Tests used:
Experiment in all cases: growth of human tumour cells (NCI), 384-well format
[1] = system: PC-3 prostate
[2] = system: UACC-62 melanoma
[3] = system: MALME-3M melanoma
[4] = system: OVCAR-8 ovarian
[5] = system: SN12C renal
[6] = system: A498 renal
[7] = system: MDA-MB-468 breast
[8] = system: SNB-75 CNS
[9] = system: K-562 leukemia
[10] = system: HL-60(TB) leukemia
[11] = system: SK-MEL-5 melanoma
[12] = system: SK-MEL-2 melanoma
[13] = system: MOLT-4 leukemia
[14] = system: IGROV1 ovarian
[15] = system: COLO 205 colon
[16] = system: NCI-H522 lung
[17] = system: TK-10 renal
[18] = system: CAKI-1 renal
[19] = system: NCI-H226 lung
[20] = system: SF-268 CNS
[21] = system: SK-MEL-28 melanoma
[22] = system: HCT-15 colon
[23] = system: HT29 colon
[24] = system: RPMI-8226 leukemia
[25] = system: M14 melanoma
[26] = system: RXF 393 renal
[27] = system: MDA-MB-435 melanoma
[28] = system: CCRF-CEM leukemia
[29] = system: SK-OV-3 ovarian
[30] = system: HOP-92 NSCLC
[31] = system: NCI-H23 lung
[32] = system: UO-31 renal
[33] = system: NCI-H322M lung
[34] = system: BT-549 breast
[35] = system: EKVX NSCLC
[36] = system: A549 NSCLC
[37] = system: NCI/ADR-RES ovarian
[38] = system: HS 578T breast
[39] = system: T-47D breast
[40] = system: NCI-H460 NSCLC
[41] = system: DU-145 prostate
[42] = system: SNB-19 CNS
[43] = system: UACC-257 melanoma
[44] = system: MDA-MB-231 breast
[45] = system: ACHN renal
[46] = system: KM12 colon
[47] = system: HOP-62 NSCLC

Structure (SMILES): C[C@H](NC(=O)c1c(N)nn2cccnc12)c1cc2cccc(C#Cc3cnn(C)c3)c2c(=O)n1-c1ccccc1
- GI50 [1]: 1.84 µM
- TGI [1]: 12.9 µM
- GI50 [2]: 1.54 µM
- TGI [2]: 12.1 µM
- GI50 [3]: 6.62 µM
- TGI [3]: 20.5 µM
- GI50 [4]: 8.07 µM
- TGI [4]: 21.3 µM
- GI50 [5]: 4.38 µM
- TGI [5]: 20 µM
- GI50 [6]: 2.72 µM
- TGI [6]: 14.8 µM
- GI50 [7]: 0.507 µM
- TGI [7]: 3.34 µM
- GI50 [8]: 0.806 µM
- TGI [8]: 4.38 µM
- GI50 [9]: 7.56 µM
- TGI [9]: 20.3 µM
- GI50 [10]: 1.15 µM
- TGI [10]: 4.94 µM
- GI50 [11]: 5.38 µM
- TGI [11]: 20 µM
- GI50 [12]: 12.4 µM
- TGI [12]: 24.9 µM
- GI50 [13]: 0.847 µM
- TGI [13]: 2.21 µM
- GI50 [14]: 0.559 µM
- TGI [14]: 2.1 µM
- GI50 [15]: 8.8 µM
- TGI [15]: 22.7 µM
- GI50 [16]: 4.55 µM
- TGI [16]: 18.7 µM
- GI50 [17]: 3.93 µM
- TGI [17]: 17.3 µM
- GI50 [18]: 1.28 µM
- TGI [18]: 15.7 µM
- GI50 [19]: 3.95 µM
- TGI [19]: 16.3 µM
- GI50 [20]: 2.02 µM
- TGI [20]: 9.93 µM
- GI50 [21]: 4.42 µM
- TGI [21]: 17.8 µM
- GI50 [22]: 5.88 µM
- TGI [22]: 18.7 µM
- GI50 [23]: 6.3 µM
- TGI [23]: 20 µM
- GI50 [24]: 1.71 µM
- TGI [24]: 3.73 µM
- GI50 [25]: 11.1 µM
- TGI [25]: 24.9 µM
- GI50 [26]: 1.3 µM
- TGI [26]: 5.68 µM
- GI50 [27]: 10.6 µM
- TGI [27]: 24.1 µM
- GI50 [28]: 0.0549 µM
- TGI [28]: 1.78 µM
- GI50 [29]: 2.19 µM
- TGI [29]: 12.5 µM
- GI50 [30]: 0.47 µM
- TGI [30]: 4.04 µM
- GI50 [31]: 4.63 µM
- TGI [31]: 18.9 µM
- GI50 [32]: 3.18 µM
- TGI [32]: 14.1 µM
- GI50 [33]: 9.35 µM
- TGI [33]: 23.9 µM
- GI50 [34]: 1.48 µM
- TGI [34]: 9.11 µM
- GI50 [35]: 2.6 µM
- TGI [35]: 15.3 µM
- GI50 [36]: 4.45 µM
- TGI [36]: 17.6 µM
- GI50 [37]: 5.28 µM
- TGI [37]: 16.2 µM
- GI50 [38]: 0.846 µM
- TGI [38]: 6.01 µM
- GI50 [39]: 0.375 µM
- TGI [39]: 2.41 µM
- GI50 [40]: 3.71 µM
- TGI [40]: 16.7 µM
- GI50 [41]: 7.97 µM
- TGI [41]: 23.8 µM
- GI50 [42]: 13 µM
- TGI [42]: 26.5 µM
- GI50 [43]: 8.67 µM
- TGI [43]: 22.7 µM
- GI50 [44]: 6.03 µM
- TGI [44]: 18.3 µM
- GI50 [45]: 4.31 µM
- TGI [45]: 19.4 µM
- GI50 [46]: 10.3 µM
- TGI [46]: 23.2 µM
- GI50 [47]: 7.24 µM
- TGI [47]: 20.4 µM
